Experimental data: patent publication US7972815B2, “Method of producing sugar chain using human G4 polypeptide” (Kyowa Hakko Kirin Co., Ltd., priority 1999, dated 2011)

How the values were obtained:
Assay type in all cases: biochemical
[1] = target: T1, β1,3-N-acetylglucosaminyl transferase (G4) (Homo sapiens, UniProt Q9Y2A9, R328H); test: Substrate specificity of G4 with pyridylaminated oligosaccharides; settings: for Relative activity (%): pyridylaminated substrate 50 μmol/l, 37° C., 14.5 hours, activity on LNnT defined as 100%
T1 construct: made in house; host or cells: Sf21 insect cells infected with recombinant baculovirus from pVL1393-F2G4
T1 sequence (Q9Y2A9 38-372 R328H): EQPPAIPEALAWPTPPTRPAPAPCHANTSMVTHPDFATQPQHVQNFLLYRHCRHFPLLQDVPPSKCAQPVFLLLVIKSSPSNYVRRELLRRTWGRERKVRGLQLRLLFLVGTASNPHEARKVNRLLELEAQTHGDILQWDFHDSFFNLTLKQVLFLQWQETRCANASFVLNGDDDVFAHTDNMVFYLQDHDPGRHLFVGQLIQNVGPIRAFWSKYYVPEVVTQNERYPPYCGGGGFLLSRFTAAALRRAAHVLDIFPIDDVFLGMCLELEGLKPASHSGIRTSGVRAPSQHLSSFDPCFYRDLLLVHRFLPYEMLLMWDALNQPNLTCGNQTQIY
Description: Examination on the substrate specificity of a β1,3-N-acetylglucosaminyl transferase (G4) was carried out by using the FLAG peptide-fused G4 polypeptide produced as a secreted form in Example 10.
(§1) The method shown in Example 8 was used as the activity measuring method. Specifically, after the reaction at 37° C. for 14.5 hours in 30 μl of an assay solution [200 mmol/l of MOPS (pH 7.5), 20 mmol/l of UDP-GlcNAc (SIGMA), 20 mmol/l of MnCl2, 50 μmol/l of pyridylaminated sugar chain substrate and 15 μl of the above eluate], products were detected by HPLC. As substrates, LNnT, lacto-N-tetraose (Galβ1-3GlcNAcβ1-3Galβ1-4Glc, hereinafter referred to as “LNT”), lacto-N-fucopentaose II (Galβ1-3(Fucα1-4)GlcNAcβ1-3Galβ1-4Glc, hereinafter referred to as “LNFP-II”), lacto-N-fucopentaose III (Galβ1-4(Fucα1-3)GlcNAcβ1-3Galβ1-4Glc, hereinafter referred to as “LNFP-III”), lacto-N-fucopentaose V (Galβ1-3GlcNAcβ1-3Galβ1-4(Fucα1-3)Glc, hereinafter referred to as “LNFP-V”) and lacto-N-difucohexaose II (Galβ1-3(Fucα1-4)GlcNAcβ1-3Galβ1-4(Fucα1-3)Glc, hereinafter referred to as “LNDFH-II”) (all manufactured by Oxford Glycosystems) were used after fluorescently labeling them with aminopyridine. Fluorescence labeling of these substrates were carried out in accordance with the usual method [Agric. Biol. Chem., 54, 2169 (1990)].
(§2) For each substrate, the reaction was carried using the assay solution with or without UDP-GlcNAc (sugar donor), and then HPLC was carried out and peaks appeared only in the assay solution containing UDP-GlcNAc were defined as products.
(§3) The assay solution after completion of the reaction was treated at 100° C. for 5 minutes and then centrifuged at 10,000×g for 5 minutes, and a portion (5 μl) of the thus obtained supernatant was applied to HPLC.
(§4) The HPLC was carried out by using TSK-gel ODS-80Ts column (4.6×300 mm; Tosoh); 0.02 mol/l ammonium acetate buffer (pH 4.0) was used as the eluate at an elution temperature of 50° C. and at a flow rate of 0.5 ml/min.
(§5) Products were detected by using a fluorescence spectrum photometer FP-920 (JASCO Corporation) (excitation wavelength 320 nm, radiation wavelength 400 nm).

[2] = target: T2, β1,3-N-acetylglucosaminyl transferase (G3) (Homo sapiens, UniProt Q9NY97); test: Substrate specificity of G3 with unlabeled oligosaccharides; settings: 2 hours; for Relative activity (%) G3: unlabeled substrate, 37° C., activity for LNnT defined as 100%
T2 construct: made in house; host or cells: Sf21 insect cells infected with recombinant baculovirus from pVL1393-F2G3
T2 sequence (Q9NY97 31-397): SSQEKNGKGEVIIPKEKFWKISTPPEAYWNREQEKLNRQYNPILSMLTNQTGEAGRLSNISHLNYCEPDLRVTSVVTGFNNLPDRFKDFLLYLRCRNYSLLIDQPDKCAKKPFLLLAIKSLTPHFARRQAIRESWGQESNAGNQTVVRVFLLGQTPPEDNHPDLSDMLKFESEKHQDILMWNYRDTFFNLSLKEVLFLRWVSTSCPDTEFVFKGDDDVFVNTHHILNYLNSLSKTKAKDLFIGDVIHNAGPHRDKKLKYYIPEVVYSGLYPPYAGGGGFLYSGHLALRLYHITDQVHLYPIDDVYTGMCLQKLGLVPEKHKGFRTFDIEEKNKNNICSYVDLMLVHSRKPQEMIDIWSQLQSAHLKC
Description: (§6) The reaction using the glycosyltransferase was carried out as follows. The reaction was carried out at 37° C. for 16 hours in 40 μl of an assay solution [50 mmol/l MOPS (pH 7.5), 5 mmol/l UDP-GlcNAc (SIGMA), 5 mmol/l MnCl2, […] and 10 μl of the above eluate]. Next, the reaction solution was treated at 100° C. for 5 minutes and then centrifuged at 10,000×g for 20 minutes to obtain the supernatant, and a portion thereof was analyzed using HPAE/PAD (High Performance Anion Pulsed Amperometoric Detection; manufactured by DIONEX). The specific method was carried out in the usual way [Anal. Biochem., 189, 151 (1990), J. Biol. Chem., 273, 433 (1998)].
(§7) As substrates, the following unlabeled oligosaccharides were used: lactose (Galβ1-4Glc), N-acetyllactosamine (Galβ1-4GlcNAc, hereinafter referred to as “LacNAc” in some cases), LNnT, LNT and lacto-N-neohexaose (Galβ1-4GlcNACβ1-3Galβ1-4GlcNAcβ1-3Galβ1-4Glc, hereinafter referred to as “LNnH”).
as §2
(§8) In identifying the product, coincidence of its elution time with that of a standard sugar chain was used as the index. As the standard sugar chains, GlcNAcβ1-3Galβ1-4Glc, GlcNAcβ1-3Galβ1-4GlcNAc and GlcNAcβ1-3Galβ1-4GlcNAcβ1-3Galβ1-4Glc were used.
Substrate specificity of the FLAG peptide-fused G3 polypeptide was examined by the method shown in Example 11(2). The enzyme reaction was carried out at 37° C. for 2 hours.

[3] = target: T3, β1,3-N-acetylglucosaminyl transferase (G7) (Homo sapiens, UniProt Q9C0J1); test: Substrate specificity of G7 with pyridylaminated oligosaccharides; settings: 16 hours; for Relative activity (%): pyridylaminated substrate, 37° C., activity for LNnT defined as 100%
T3 construct: made in house; host or cells: Sf21 insect cells infected with recombinant baculovirus from pVL1393-F2G7
Description: as §1, §2, §3, §4, §5
Examination of the substrate specificity of a β1,3-N-acetylglucosaminyl transferase (G7) was carried out using the FLAG peptide-fused G7 polypeptide purified in Example 17.
Substrate specificity of the FLAG peptide-fused G7 polypeptide was examined by the method shown in Example 11(1). The reaction was carried out at 37° C. for 16 hours.

[4] = target: T3, β1,3-N-acetylglucosaminyl transferase (G7); test: Substrate specificity of G7 with unlabeled oligosaccharides; settings: 15.5 hours; for Relative activity (%) G7: unlabeled substrate, 37° C., activity for LNnT defined as 100%
Description: as §6, §7, §2, §8
Substrate specificity of the FLAG peptide-fused G7 polypeptide was examined using the method shown in Example 11(2). The enzyme reaction was carried out at 37° C. for 15.5 hours.

[5] = pyridylaminated LNnT as substrate

T3 sequence (Q9C0J1 56-378): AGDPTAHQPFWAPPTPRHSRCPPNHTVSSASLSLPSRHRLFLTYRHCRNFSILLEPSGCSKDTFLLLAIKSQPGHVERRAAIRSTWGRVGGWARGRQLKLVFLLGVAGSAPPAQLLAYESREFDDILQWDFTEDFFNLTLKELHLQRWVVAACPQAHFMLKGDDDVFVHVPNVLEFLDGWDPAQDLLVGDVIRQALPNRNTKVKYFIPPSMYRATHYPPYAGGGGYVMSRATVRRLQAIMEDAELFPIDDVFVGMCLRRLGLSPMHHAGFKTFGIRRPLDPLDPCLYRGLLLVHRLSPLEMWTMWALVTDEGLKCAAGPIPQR

conversion ratio of the substrate into the product [1, 5] [%] | Relative activity (%) [1] [%] | conversion ratio of a substrate into the product ([2]; unlabeled LNnT as substrate) [%] | Relative activity (%) G3 [2] [%] | conversion efficiency of the substrate into the product [3, 5] [%] | Relative activity (%) [3] [%] | conversion efficiency of the substrate into the product ([4]; unlabeled LNnT as substrate) [%] | Relative activity (%) G7 [4] [%] | Compound
12.9 | 100 | 4.6 | 100 | 3.76 | 100 | 3.07 | 100 | CC(=O)N[C@H]1[C@H](O[C@H]2[C@@H](O)[C@@H](CO)O[C@@H](O[C@H]3[C@H](O)[C@@H](O)C(O)O[C@@H]3CO)[C@@H]2O)O[C@H](CO)[C@@H](O[C@@H]2O[C@H](CO)[C@H](O)[C@H](O)[C@H]2O)[C@@H]1O (mixture of isomers) [LNnT, lacto-N-neotetraose]
– | 84.5 | – | 27 | – | 7.6 | – | 0 | CC(=O)N[C@H]1[C@H](O[C@H]2[C@@H](O)[C@@H](CO)O[C@@H](O[C@H]3[C@H](O)[C@@H](O)C(O)O[C@@H]3CO)[C@@H]2O)O[C@H](CO)[C@@H](O)[C@@H]1O[C@@H]1O[C@H](CO)[C@H](O)[C@H](O)[C@H]1O (stereo partly drawn) [LNT, lacto-N-tetraose]
